# Target: GPR40 (Homo sapiens, UniProt O14842)
# Assay: Cell-based aequorin assay (CHO cells stably transfected with GPR40 and aequorin)
# Set-up: expressed in transfected cells
# Conditions: activation of human GPR40, CHO cells, 0.01% HSA
# Procedure: Briefly, the Aequorin assays were performed on doubly stable CHO cells expressing GPR40 and Aequorin DNA. […] The luminescence was recorded over a period of 20 seconds with a Microlumat luminometer (Berthold).
# Cell-based aequorin assays were employed to characterize the modulatory activity of compounds on the GPR40 signaling pathway. In an exemplary assay, CHO cells were stably transfected with both GPR40 and Aequorin (Euroscreen). Cells were detached from the tissue culture dish with 2 mL of trypsin (0.25% (w/v)). Trypsinization was halted with 28 mL of Hanks Buffered Salt Solution containing 20 mM Hepes (H/HBSS) and 0.01% fatty acid-free human serum albumin (HSA). Coelantrazine is added to 1 ug/mL, and the cells were incubated for 2 hours at room temperature. Compounds were dissolved in DMSO for preparation of 10 mM stock solutions. Compounds were diluted in H/HBSS containing 0.01% HSA. Serial dilutions of the test compounds were prepared to determine dose response.
# Aequorin luminescence measurements were made using an EG&G Berthold 96-well luminometer, and the response was measured over a 20 second interval after cells and compounds were mixed. The maximum relative light units was plotted to determine dose response. The EC50 (effective concentration to reach 50% maximal response) was determined from the dose response plot.
# GPR40, sequence (O14842 whole entry): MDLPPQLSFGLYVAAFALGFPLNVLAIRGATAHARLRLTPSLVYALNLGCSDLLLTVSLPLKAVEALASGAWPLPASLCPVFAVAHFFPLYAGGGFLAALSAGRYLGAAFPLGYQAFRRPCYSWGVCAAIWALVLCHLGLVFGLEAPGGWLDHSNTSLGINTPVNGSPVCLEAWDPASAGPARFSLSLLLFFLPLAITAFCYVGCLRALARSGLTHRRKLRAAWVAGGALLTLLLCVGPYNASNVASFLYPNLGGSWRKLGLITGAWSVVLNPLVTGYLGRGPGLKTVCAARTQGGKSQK
row,SMILES,EC50
1,"COc1ccc(F)c(-c2ccc(COc3ccc4c(c3)[C@@H](CC(=O)O)C4)cc2C(C)(C)C)c1 (single isomer, unassigned) [Example 4, ((7R)-4-(((2-(1,1-Dimethylethyl)-2′-fluoro-5′-(methyloxy)-1,1′-biphenyl-4-yl)methyl)oxy)bicyclo[4.2.0]octa-1,3,5-trien-7-yl)acetic acid or ((7R)-4-(((2-(1,1-dimethylethyl)-2′-fluoro-5′-(methyloxy)-1,1′-biphenyl-4-yl)methyl)oxy)bicyclo[4.2.0]octa-1,3,5-trien-7-yl)acetic acid]",> 10000 nM
2,"COc1ccc(F)c(-c2ccc(COc3ccc4c(c3)[C@H](CC(=O)O)C(C)(C)C4)cc2C(C)(C)C)c1 (single isomer, unassigned) [Example 10, ((1R)-6-(((2-(1,1-Dimethylethyl)-2′-fluoro-5′-(methyloxy)-1,1′-biphenyl-4-yl)methyl)oxy)-2,2-dimethyl-2,3-dihydro-1H-inden-1-yl)acetic acid or ((1S)-6-(((2-(1,1-dimethylethyl)-2′-fluoro-5′-(methyloxy)-1,1′-biphenyl-4-yl)methyl)oxy)-2,2-dimethyl-2,3-dihydro-1H-inden-1-yl)acetic acid]",1000 to 10000 nM
3,"CCC(C)(C)[C@H](OC)c1cc(COc2ccc3c(c2)[C@@H]([C@@H](C)C(=O)O)CC3)ccc1-c1cc(OC)ccc1F (single isomer, unassigned) [Example 27, 2-((1R)-6-(((2-((1R)-2,2-Dimethyl-1-(methyloxy)butyl)-2′-fluoro-5′-(methyloxy)-1,1′-biphenyl-4-yl)methyl)oxy)-2,3-dihydro-1H-inden-1-yl)propanoic acid (27) or stereoisomer thereof]",1000 to 10000 nM
4,"C=CC(C)(C)[C@H](O)c1cc(COc2ccc3c(c2)[C@@H]([C@@H](C)C(=O)O)CC3)ccc1-c1cc(OC)ccc1F (single isomer, unassigned) [Example 28, 2-((1R)-6-(((2′-Fluoro-2-((1S)-1-hydroxy-2,2-dimethyl-3-butenyl)-5′-(methyloxy)-1,1′-biphenyl-4-yl)methyl)oxy)-2,3-dihydro-1H-inden-1-yl)propanoic acid or stereoisomer thereof]",1000 to 10000 nM
5,"COc1ccc(F)c(-c2ccc(COc3ccc4c(c3)C[C@@H]4CC(=O)O)cc2C(C)(C)C)c1 (single isomer, unassigned) [Example 29, ((7S)-3-((2′-Fluoro-5′-methoxy-2-(2-methyl-2-propanyl)-4-biphenylyl)methoxy)bicycle[4.2.0]octa-1,3,5-trien-7-yl)acetic acid or ((7R)-3-((2′-fluoro-5′-methoxy-2-(2-methyl-2-propanyl)-4-biphenylyl)methoxy)bicycle[4.2.0]octa-1,3,5-trien-7-yl)acetic acid]",1000 to 10000 nM

# The next lines start with the values.
row,EC50,SMILES
1,1000 to 10000 nM,"COc1ccc(F)c(-c2ccc(COc3ccc4c(c3)[C@H](CC(=O)O)C4)cc2C(C)(C)C)c1 (single isomer, unassigned) [Example 3, (R)-2-(5-(3-t-Butyl-4-(2-fluoro-5-methoxyphenyl)benzyloxy)-1,2-dihydrocyclobutabenzen-1-yl)acetic acid or (S)-2-(5-(3-t-butyl-4-(2-fluoro-5-methoxyphenyl)benzyloxy)-1,2-dihydrocyclobutabenzen-1-yl)acetic acid]"
2,1000 to 10000 nM,"COc1ccc(F)c(-c2ccc(COc3ccc4c(c3)CC[C@@H]4CC(=O)O)cc2C(C)(C)C)c1 (single isomer, unassigned) [Example 5, (R)-Methyl 2-(5-(3-t-butyl-4-(2-fluoro-5-methoxyphenyl)benzyloxy)-2,3-dihydro-1H-inden-1-yl)acetic acid or (S)-methyl 2-(5-(3-t-butyl-4-(2-fluoro-5-methoxyphenyl)benzyloxy)-2,3-dihydro-1H-inden-1-yl)acetic acid]"
3,1000 to 10000 nM,"COc1ccc(F)c(-c2ccc(COc3ccc4c(c3)[C@@H](CC(=O)O)C(C)(C)C4)cc2C(C)(C)C)c1 (single isomer, unassigned) [Example 8, ((1S)-6-(((2-(1,1-Dimethylethyl)-2′-fluoro-5′-(methyloxy)-1,1′-biphenyl-4-yl)methyl)oxy)-2,2-dimethyl-2,3-dihydro-1H-inden-1-yl)acetic acid or ((1R)-6-(((2-(1,1-dimethylethyl)-2′-fluoro-5′-(methyloxy)-1,1′-biphenyl-4-yl)methyl)oxy)-2,2-dimethyl-2,3-dihydro-1H-inden-1-yl)acetic acid]"
4,100 to 1000 nM,"COc1ccc(F)c(-c2ccc(COc3ccc4c(c3)[C@@H](CC(=O)O)C(C)(C)C4)cc2C2=CCCC2(C)C)c1 (single isomer, unassigned) [Example 9, ((1S)-6-(((2-(5,5-Dimethyl-1-cyclopenten-1-yl)-2′-fluoro-5′-(methyloxy)-1,1′-biphenyl-4-yl)methyl)oxy)-2,2-dimethyl-2,3-dihydro-1H-inden-1-yl)acetic acid or ((1R)-6-(((2-(5,5-dimethyl-1-cyclopenten-1-yl)-2′-fluoro-5′-(methyloxy)-1,1′-biphenyl-4-yl)methyl)oxy)-2,2-dimethyl-2,3-dihydro-1H-inden-1-yl)acetic acid]"
5,100 to 1000 nM,"COc1ccc(F)c(-c2ccc(COc3ccc4c(c3)[C@@H](C(C)(C)C(=O)O)CC4)cc2C2=CCCC2(C)C)c1 (single isomer, unassigned) [Example 11, 2-((1S)-6-(((2-(5,5-Dimethyl-1-cyclopenten-1-yl)-2′-fluoro-5′-(methyloxy)-1,1′-biphenyl-4-yl)methyl)oxy)-2,3-dihydro-1H-inden-1-yl)-2-methylpropanoic acid or 2-((1R)-6-(((2-(5,5-dimethyl-1-cyclopenten-1-yl)-2′-fluoro-5′-(methyloxy)-1,1′-biphenyl-4-yl)methyl)oxy)-2,3-dihydro-1H-inden-1-yl)-2-methylpropanoic acid]"
6,100 to 1000 nM,"COc1ccc(F)c(-c2ccc(COc3ccc4c(c3)[C@@H](C(C)(C)C(=O)O)CC4)cc2C(C)(C)C)c1 (single isomer, unassigned) [Example 12, 2-((1S)-6-(((2-(1,1-Dimethylethyl)-2′-fluoro-5′-(methyloxy)-1,1′-biphenyl-4-yl)methyl)oxy)-2,3-dihydro-1H-inden-1-yl)-2-methylpropanoic acid or 2-((1R)-6-(((2-(1,1-Dimethylethyl)-2′-fluoro-5′-(methyloxy)-1,1′-biphenyl-4-yl)methyl)oxy)-2,3-dihydro-1H-inden-1-yl)-2-methylpropanoic acid]"
7,1000 to 10000 nM,"COc1cccc(-c2ccc(COc3ccc4c(c3)[C@@H](CC(=O)O)CC4)cc2C(C)(C)C)c1 (single isomer, unassigned) [Example 25, ((1R)-6-(((2-(1,1-Dimethylethyl)-3′-(methyloxy)-1,1′-biphenyl-4-yl)methyl)oxy)-2,3-dihydro-1H-inden-1-yl)acetic acid or ((1S)-6-(((2-(1,1-dimethylethyl)-3′-(methyloxy)-1,1′-biphenyl-4-yl)methyl)oxy)-2,3-dihydro-1H-inden-1-yl)acetic acid]"
8,1000 to 10000 nM,"COc1cccc(-c2ccc(COc3ccc4c(c3)[C@@H]([C@@H](C)C(=O)O)CC4)cc2C(C)(C)C)c1 (single isomer, unassigned) [Example 26, 2-((1R)-6-(((2-(1,1-dimethylethyl)-3′-(methyloxy)-1,1′-biphenyl-4-yl)methyl)-oxy)-2,3-dihydro-1H-inden-1-yl)propanoic acid or stereoisomer thereof]"

# — US8450522B2, “Conformationally constrained carboxylic acid derivatives useful for treating metabolic disorders” (Amgen Inc., priority 2008, dated 2013)
